Experimental data as given in patent publication US20230265151A1, “GIP/GLP1 CO-AGONIST COMPOUNDS” (priority 2020, published 2023).
Like-named read-outs stand apart in the source and are kept apart here.

What was measured:
Type in all cases: cell-based
[1] = biological target: T1, hGIPR (Homo sapiens, UniProt P48546); test: Functional cAMP formation (HTRF) in HEK-293 clonal cells expressing hGIPR, 0.1% bovine casein, without or with 1.0% human serum albumin; settings: for EC50: cAMP; for Emax: read-out: hGIPR Emax, % ± SEM
T1 construct: expressed in transfected cells
T1 sequence (P48546 22-466): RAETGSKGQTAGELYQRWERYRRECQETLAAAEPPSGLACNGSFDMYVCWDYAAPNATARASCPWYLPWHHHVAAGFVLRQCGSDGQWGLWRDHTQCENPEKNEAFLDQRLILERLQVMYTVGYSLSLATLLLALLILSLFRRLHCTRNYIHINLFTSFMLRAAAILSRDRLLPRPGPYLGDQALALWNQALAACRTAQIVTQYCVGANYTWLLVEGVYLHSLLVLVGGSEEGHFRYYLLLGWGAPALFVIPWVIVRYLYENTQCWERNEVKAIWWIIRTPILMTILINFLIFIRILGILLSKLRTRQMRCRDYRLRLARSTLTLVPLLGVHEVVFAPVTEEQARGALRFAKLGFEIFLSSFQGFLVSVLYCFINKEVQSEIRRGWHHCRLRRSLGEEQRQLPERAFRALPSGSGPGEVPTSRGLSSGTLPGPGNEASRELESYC
Procedure, shortened: (§1)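 Readings of the HTRF 665/620 nm ratio, which falls as cAMP rises, were converted to nM cAMP using a standard curve after 30 min peptide exposure at 37° C.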

[2] = biological target: T2, hGCGR (Homo sapiens, UniProt P47871); test: Functional cAMP formation (HTRF) in HEK-293 clonal cells expressing hGCGR, 0.1% bovine casein, without or with 1.0% human serum albumin
T2 construct: expressed in transfected cells
Procedure, shortened: as §1

[3] = biological target: hGLP-1R (Homo sapiens, UniProt P43220); test: Functional cAMP formation (HTRF) in HEK-293 clonal cells expressing hGLP-1R, 0.1% bovine casein, without or with 1.0% human serum albumin; design: expressed in transfected cells; settings: for Emax: percent of maximal response to GLP-1(7-36)NH2; for EC50: cAMP
Procedure, shortened: as §1

[4] = HEK293, cAMP, 37° C., 0.1% bovine casein and 1.0% human serum albumin, percent of maximal response to GIP(1-42)NH2
[5] = HEK293, cAMP, 37° C., 0.1% bovine casein, percent of maximal response to GIP(1-42)NH2, arithmetic mean
[6] = 37° C., 0.1% bovine casein (no human serum albumin), geometric mean, read-out: hGIPR EC50, nM (SEM, n)
[7] = cAMP, 37° C., 0.1% bovine casein (no human serum albumin), geometric mean, read-out: hGCGR EC50, nM (SEM, n)
[8] = cAMP, 37° C., 0.1% bovine casein and 1.0% human serum albumin, geometric mean (SEM, n), read-out: hGCGR EC50, nM (SEM, n)
[9] = 37° C., 0.1% bovine casein (no human serum albumin), geometric mean, read-out: hGLP-1R EC50, nM (SEM, n)

Chain of hGLP-1R (P43220 24-463): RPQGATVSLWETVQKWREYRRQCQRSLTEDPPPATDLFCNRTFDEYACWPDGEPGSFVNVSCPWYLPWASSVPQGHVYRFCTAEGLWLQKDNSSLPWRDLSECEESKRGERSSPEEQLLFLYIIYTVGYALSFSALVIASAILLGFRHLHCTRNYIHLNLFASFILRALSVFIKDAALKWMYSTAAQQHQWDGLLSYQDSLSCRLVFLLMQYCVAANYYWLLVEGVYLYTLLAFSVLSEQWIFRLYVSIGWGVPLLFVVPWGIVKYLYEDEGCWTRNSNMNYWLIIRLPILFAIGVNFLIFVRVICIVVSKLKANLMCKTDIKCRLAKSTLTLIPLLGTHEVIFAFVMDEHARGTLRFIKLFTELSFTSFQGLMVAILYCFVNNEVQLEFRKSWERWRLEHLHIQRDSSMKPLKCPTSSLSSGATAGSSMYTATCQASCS
T2 sequence (P47871 26-477): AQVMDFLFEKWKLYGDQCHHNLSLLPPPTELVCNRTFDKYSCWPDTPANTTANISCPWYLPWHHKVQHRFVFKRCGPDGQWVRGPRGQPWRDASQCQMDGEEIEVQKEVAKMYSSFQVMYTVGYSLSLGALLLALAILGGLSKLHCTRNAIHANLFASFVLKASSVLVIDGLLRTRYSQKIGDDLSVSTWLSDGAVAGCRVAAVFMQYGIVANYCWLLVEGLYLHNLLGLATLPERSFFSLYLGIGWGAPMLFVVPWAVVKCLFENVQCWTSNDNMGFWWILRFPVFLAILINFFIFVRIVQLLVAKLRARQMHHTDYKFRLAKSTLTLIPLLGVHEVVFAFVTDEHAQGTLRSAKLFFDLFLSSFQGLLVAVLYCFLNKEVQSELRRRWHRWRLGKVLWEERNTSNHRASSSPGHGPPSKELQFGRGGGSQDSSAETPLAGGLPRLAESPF

SMILES: CC[C@H](C)[C@H](NC(=O)[C@H](CCCN)NC(=O)[C@H](CC(=O)O)NC(=O)[C@H](CC(C)C)NC(=O)[C@](C)(CC(C)C)NC(=O)[C@@H](NC(=O)C(C)(C)NC(=O)[C@H](Cc1ccncc1)NC(=O)[C@H](CC(=O)O)NC(=O)[C@H](CO)NC(=O)[C@@H](NC(=O)[C@](C)(Cc1ccccc1F)NC(=O)[C@@H](NC(=O)CNC(=O)[C@H](CCC(=O)O)NC(=O)C(C)(C)NC(=O)[C@@H](N)Cc1ccc(O)cc1)[C@@H](C)O)[C@@H](C)O)[C@@H](C)CC)C(=O)N[C@@H](C)C(=O)N[C@@H](CCC(N)=O)C(=O)NC(C)(C)C(=O)N[C@@H](CCCCNC(=O)COCCOCCNC(=O)COCCOCCNC(=O)CC[C@H](NC(=O)CCCCCCCCCCOc1ccc(C(=O)O)cc1)C(=O)O)C(=O)N[C@@H](Cc1ccccc1)C(=O)N[C@H](C(=O)N[C@H](CCC(=O)O)C(=O)N[C@@](C)(Cc1ccc(O)cc1)C(=O)N[C@@H](CC(C)C)C(=O)N[C@H](C(=O)N[C@@H](CCCCNC(=O)COCCOCCNC(=O)COCCOCCNC(=O)CC[C@H](NC(=O)CCCCCCCCCCOc1ccc(C(=O)O)cc1)C(=O)O)C(=O)NCC(=O)NCC(=O)N1CCC[C@H]1C(=O)N[C@@H](CO)C(=O)N[C@@H](CO)C(=O)NCC(=O)N[C@@H](C)C(=O)N1CCC[C@H]1C(=O)N1CCC[C@H]1C(=O)N1CCC[C@H]1C(=O)N[C@@H](CO)C(N)=O)[C@@H](C)CC)[C@@H](C)CC [Example 331]
- EC50 ([1]; hGIPR EC50, nM (SEM, n), 37° C., 0.1% bovine casein (no human serum albumin), geometric mean): 0.0113 nM
- EC50 ([2]; hGCGR EC50, nM (SEM, n), cAMP, 37° C., 0.1% bovine casein (no human serum albumin), geometric mean): > 9950 nM
- EC50 ([2]; hGCGR EC50, nM (SEM, n), cAMP, 37° C., 0.1% bovine casein and 1.0% human serum albumin, geometric mean (SEM, n)): > 9950 nM
- Emax ([3]; HEK293, read-out: hGLP-1R Emax, % ± SEM, cAMP, 37° C., 0.1% bovine casein and 1.0% human serum albumin): 114%
- EC50 ([3]; hGLP-1R EC50, nM (SEM, n), 37° C., 0.1% bovine casein (no human serum albumin), geometric mean): 0.436 nM

SMILES: CCCCCCCCCCCC(=O)N[C@@H](CCC(=O)NCCOCCOCC(=O)NCCCC[C@H](NC(=O)[C@H](CO)NC(=O)[C@@H]1CCCN1C(=O)[C@@H]1CCCN1C(=O)[C@@H]1CCCN1C(=O)[C@H](C)NC(=O)CNC(=O)[C@H](CO)NC(=O)[C@H](CO)NC(=O)[C@@H]1CCCN1C(=O)CNC(=O)CNC(=O)[C@H](CCC(=O)O)NC(=O)[C@@H](NC(=O)[C@H](CC(C)C)NC(=O)[C@](C)(Cc1ccc(O)cc1)NC(=O)[C@@H](CCC(=O)O)NC(=O)[C@@H](NC(=O)[C@H](Cc1ccccc1)NC(=O)[C@H](CCC(=O)O)NC(=O)C(C)(C)NC(=O)[C@H](CCC(N)=O)NC(=O)[C@H](C)NC(=O)[C@H](CCCCNC(=O)COCCOCCNC(=O)CC[C@H](NC(=O)CCCCCCCCCCC)C(=O)O)NC(=O)[C@H](CCCN)NC(=O)[C@H](CC(=O)O)NC(=O)[C@H](CC(C)C)NC(=O)[C@](C)(CC(C)C)NC(=O)[C@@H](NC(=O)C(C)(C)NC(=O)[C@H](Cc1ccncc1)NC(=O)[C@H](CC(=O)O)NC(=O)[C@H](CO)NC(=O)[C@@H](NC(=O)[C@](C)(Cc1ccccc1F)NC(=O)[C@@H](NC(=O)CNC(=O)[C@H](CCC(=O)O)NC(=O)C(C)(C)NC(=O)[C@@H](N)Cc1ccc(O)cc1)[C@@H](C)O)[C@@H](C)O)[C@@H](C)CC)[C@@H](C)CC)[C@@H](C)CC)C(N)=O)C(=O)O [Example 428]
- Emax [1, 4]: 93.6%
- Emax [1, 5]: 95.5%
- EC50 [1, 6]: 0.00797 nM
- EC50 [2, 7]: > 9950 nM
- EC50 [2, 8]: > 9950 nM
- Emax ([3]; HEK293, cAMP, 37° C., 0.1% bovine casein and 1.0% human serum albumin, read-out: hGLP-1R Emax, % ± SEM): 105%
- EC50 [3, 9]: 0.102 nM
- EC50 ([3]; 37° C., 0.1% bovine casein and 1.0% human serum albumin, geometric mean (SEM, n), read-out: hGLP-1R EC50, nM (SEM, n)): 10.2 nM

SMILES: CC[C@H](C)[C@H](NC(=O)[C@H](CC(C)C)NC(=O)[C@](C)(Cc1ccc(O)cc1)NC(=O)[C@@H](CCC(=O)O)NC(=O)[C@@H](NC(=O)[C@H](Cc1ccccc1)NC(=O)[C@H](CCC(=O)O)NC(=O)C(C)(C)NC(=O)[C@H](CCC(N)=O)NC(=O)[C@H](C)NC(=O)[C@H](CCCCNC(=O)COCCOCCNC(=O)COCCOCCNC(=O)CC[C@H](NC(=O)CCCCCCCCCCCCC(=O)O)C(=O)O)NC(=O)[C@H](CCCN)NC(=O)[C@H](CC(=O)O)NC(=O)[C@H](CC(C)C)NC(=O)[C@](C)(CC(C)C)NC(=O)[C@@H](NC(=O)[C@H](CO)NC(=O)[C@H](Cc1cccc2ccccc12)NC(=O)[C@H](CC(=O)O)NC(=O)[C@H](CO)NC(=O)[C@@H](NC(=O)[C@](C)(Cc1ccccc1F)NC(=O)[C@@H](NC(=O)CNC(=O)[C@H](CCC(=O)O)NC(=O)C(C)(C)NC(=O)[C@@H](N)Cc1ccc(O)cc1)[C@@H](C)O)[C@@H](C)O)[C@@H](C)CC)[C@@H](C)CC)C(=O)N[C@@H](CCC(=O)O)C(=O)NCC(=O)NCC(=O)N[C@@H](CCCCNC(=O)COCCOCCNC(=O)COCCOCCNC(=O)CC[C@H](NC(=O)CCCCCCCCCCCCC(=O)O)C(=O)O)C(=O)N[C@@H](CO)C(=O)N[C@@H](CO)C(=O)NCC(=O)N[C@@H](C)C(=O)N1CCC[C@H]1C(=O)N1CCC[C@H]1C(=O)N1CCC[C@H]1C(=O)N[C@@H](CO)C(N)=O [Example 56]
- Emax ([1]; HEK293, 0.1% bovine casein and 1.0% human serum albumin, 37° C., percent of maximal response to GIP(1-42)NH2): 91.4 ± 1.04%
- Emax ([1]; HEK293, percent of maximal response to GIP(1-42)NH2, 37° C., 0.1% bovine casein, arithmetic mean): 90.3 ± 2.57%
- EC50 ([1]; incubated at 37° C., 0.1% bovine casein (no human serum albumin), geometric mean, read-out: hGIPR EC50, nM (SEM, n)): 0.0138 nM
- EC50 ([2]; 0.1% bovine casein and 1.0% human serum albumin, 37° C., geometric mean, read-out: hGCGR EC50, nM (SEM, n)): > 9950 nM
- EC50 ([2]; cAMP, incubated at 37° C., 0.1% bovine casein (no human serum albumin), geometric mean, read-out: hGCGR EC50, nM (SEM, n)): > 9950 nM
- Emax ([3]; HEK293, 0.1% bovine casein and 1.0% human serum albumin, 37° C., read-out: hGLP-1R Emax, % ± SEM): 123 ± 6.57%

SMILES: CC[C@H](C)[C@H](NC(=O)[C@H](CC(C)C)NC(=O)[C@](C)(Cc1ccc(O)cc1)NC(=O)[C@@H](CCC(=O)O)NC(=O)[C@@H](NC(=O)[C@H](Cc1ccccc1)NC(=O)[C@H](CCC(=O)O)NC(=O)C(C)(C)NC(=O)[C@H](CCC(N)=O)NC(=O)[C@H](C)NC(=O)[C@H](CCCCNC(=O)COCCOCCNC(=O)COCCOCCNC(=O)CCCCCCCCCCCCC(=O)O)NC(=O)[C@H](CCCN)NC(=O)[C@H](CC(=O)O)NC(=O)[C@H](CC(C)C)NC(=O)[C@](C)(CC(C)C)NC(=O)[C@@H](NC(=O)C(C)(C)NC(=O)[C@@H](NC(=O)[C@H](CC(=O)O)NC(=O)[C@H](CO)NC(=O)[C@@H](NC(=O)[C@](C)(Cc1ccccc1F)NC(=O)[C@@H](NC(=O)CNC(=O)[C@H](CCC(=O)O)NC(=O)C(C)(C)NC(=O)[C@@H](N)Cc1ccc(O)cc1)[C@@H](C)O)[C@@H](C)O)C(C)C)[C@@H](C)CC)[C@@H](C)CC)C(=O)N[C@@H](CCCCNC(=O)COCCOCCNC(=O)COCCOCCNC(=O)CCCCCCCCCCCCC(=O)O)C(=O)NCC(=O)NCC(=O)N1CCC[C@H]1C(=O)N[C@@H](CO)C(=O)N[C@@H](CO)C(=O)NCC(=O)N[C@@H](C)C(=O)N1CCC[C@H]1C(=O)N1CCC[C@H]1C(=O)N1CCC[C@H]1C(=O)N[C@@H](CO)C(N)=O [Example 389]
- Emax [1, 4]: 82%
- Emax [1, 5]: 94.6%
- EC50 [1, 6]: 0.0178 nM
- EC50 ([1]; 37° C., 0.1% bovine casein and 1.0% human serum albumin, geometric mean (SEM, n), read-out: hGIPR EC50, nM (SEM, n)): 1.5 nM
- EC50 [2, 7]: > 9950 nM
- EC50 [2, 8]: > 9950 nM
- Emax ([3]; HEK293, cAMP, 37° C., 0.1% bovine casein, arithmetic mean, read-out: hGLP-1R Emax, % ± SEM): 92.4%
- EC50 [3, 9]: 0.19 nM
